Legend:
Osteopontin (OPN) = assay: 15N-1H HSQC NMR binding to osteopontin; conditions: HS compared with SCA-744
Protocol: In order to verify the predicted heparan sulfate mimicking activity of SCA-744, its physical interaction was probed with a prototypical HS-binding protein Osteopontin (OPN), a component of the extracellular matrix (ECM). To this end, NMR spectroscopy was used to directly probe the interaction and map the location of the interaction site along the protein backbone. The experimental strategy was as follows: First, ^15N-labelled OPN was prepared following well-established molecular biology technology techniques. Individual residue positions are directly monitored via the so-called ^15N-^1H Heteronuclear Single-Quantum Coherence (HSQC) spectroscopy, where individual cross peaks in the two-dimensional (2D) frequency spectrum corresponds to individual residue positions (amino acids) of the protein. Ligand binding changes the chemical environment of residues located in the binding site and leads to a change in the HSQC spectrum. Since the signal assignment is available, the residue positions which are affected by ligand binding can easily be identified by comparing HSQC spectra of the apo (ligand-free) and ligand-bound state of the protein (FIG. 7A). […] It is very convenient to analyze the chemical shift changes (induced by ligand binding) as a function of residue positions (FIG. 7B,C). Residues that display the largest chemical shift changes are typically part of the binding interface. […] Therefore, it can be concluded that SCA-744 and HS share the same ligand interaction sites and therefore are in competition for binding.

[1] = Cytotoxicity, CellTiter-Glo cell viability; format: cell-based; conditions: human, HEK 293 cells (printed as HEK 293 neuroblastoma cell lines), 72 h treatment, read-out: EC50 cytotoxicity (cell viability, ATP)
Protocol: FIG. 19.: In-vitro assessment of SCA-744 (A) and SCA-754 (B) cytotoxicity. Experiments were performed using HEK 293 […] cell lines. The effect of SCA-744 and SCA-754 on cell viability was assessed using a standard ATP, CellTiter-Glo® Luminescent Cell Viability Assay following 72 hours treatment.
In vitro assessment of cytotoxicity of SCA-744 and SCA-754 in mammalian cells. 72 h following SCA-744 and SCA-754-treatment, cell viability was assessed using a standard ATP method, CellTiter-Glo® Luminescent Cell Viability Assay.

[2] = test system: THP-1 human monocytic cell line; assay: LPS-stimulated THP-1 macrophage cytokine production (LEGENDplex); format: cell-based; conditions: 10 ng/ml LPS; 30 and 150 μM; FIG. 3
Protocol: A specific anti-inflammatory effect or activity of a compound is proven, if the compound can decrease the production of one of IL-1B, IL-6 and TNFα in human THP1 macrophages following LPS stimulation, as determined by a standard assay: THP-1 human monocytic cell lines are treated with 100 nM of Phorbol 12-myristate 13-acetate (PMA) for 48 h to induce mature macrophage-like state. Cells are then stimulated with 100 ng/ml of LPS in the absence and presence of 500 μM of compound. After 6 hours, supernatants of treated and untreated cells are collected, and cytokine levels determined using the Human Inflammatory panel LEGENDplex Human Pro-inflammatory Chemokine Panel (Cat. No. 740118). A positive result is considered if the compound is capable of reduce or block the production of IL-1β, IL-6, and TNFα in human THP1 macrophages after LPS stimulation.
Following cells were treated with [10 ng/ml] LPS in the absence and presence 10, 100 and 500 μM of SCA-744. Cytokine levels were determined by LEGENDplex™ Human Inflammation Panel assay from BioLegend. The bar heights represent the concentration means compared to LPS alone of 3 independent experiments carried out in triplicates.
Cells were treated with 100 nM of Phorbol 12-myristate 13-acetate (PMA) for 48 h to induce mature macrophage-like state. Cells were then stimulated with 100 ng/ml of Lipopolysaccharides (LPS) in the absence and presence of 500 μM of SCA-744. After 6 hours, supernatants of treated and untreated cells were collected and the levels of three major pro-inflammatory cytokines TNF-α, IL-6 and IL-1ß were determined using the Human Inflammatory panel of LEGENDPLEX Multi-Analyte Flow assay.

neuroblastoma cells = assay: Protection from MPP+ induced oxidative stress, CellTiter-Glo viability; format: cell-based; conditions: for protection from MPP+ induced apoptosis / damage: 0.1-1000 μM, 12 h
Protocol: Several in-vivo and in-vitro studies find that MPP+ exerts oxidative stress on cells^22. MPP+×toxicity is based on its uptake into dopaminergic neurons. MPP+ accumulate into the mitochondria, inhibiting the complex-I leading to ATP depletion, increased reactive oxygen species (ROS) production, and apoptotic cell death^23. 12 h following MPP+ treatment and SCA-744 and CAL-X incubation, cell viability was assessed using a standard ATP method, CellTiter-Glo® Luminescent Cell Viability Assay.

heparan sulfate [HS, reference compound]
binding sites on OPN (chemical shift changes by residue) (Osteopontin (OPN)): overlapping binding sites

Cc1cc2c(O)c(c1)Cc1cc(S(=O)(=O)O)cc(c1O)Cc1cc(S(=O)(=O)O)cc(c1O)Cc1cc(S(=O)(=O)O)cc(c1O)C2 [SCA-754, Trisodium 25,26,27,28-tetrahydroxycalix(4)arene-23-methyl-5,11,17-trisulfonate]
EC50 at 72 h [1]: 1 mM | inhibition of LPS-induced TNF-α, IL-ß and IL-6 [2]: Dose-dependent inhibition | MPP+ protection relative to SCA-744 (neuroblastoma cells; 0.2 μM versus 1 μM): 5 × times | protection from MPP+ induced apoptosis / damage (neuroblastoma cells): protects against oxidative stress from MPP+ induced damage | protection from MPP+ induced apoptosis / damage (neuroblastoma cells; listed as CAL-X): protected neuroblastoma cells from MPP+ induced apoptosis | concentration for MPP+ protection (neuroblastoma cells; 12 h following MPP+ treatment, CellTiter-Glo): 0.2 µM

Source: patent US12714682B2, “Calixarene compounds and uses thereof” (UNIVERSITÄT WIEN, priority 2019, dated 2026)
